Residues, ends and D or L forms follow the SMILES beside them.
System: collagenase
Assay: collagenase inhibition, acetyl 14C collagen hydrolysis (procedure of Sellers et al.)
Format: biochemical
Settings: 2mM inhibitor, 35° C., 5 to 18 hours, Tris-CaCl2 pH 7.4, vs control devoid of inhibitor
Procedure: The inhibitory effect of the compounds of this invention toward collagenase was determined following the procedure of Sellers et al., Biochem. J. 167 353-360 (1977) whereby the 2mM of the inhibitor being tested is incubated at 35° C. for from 5 to 18 hours (depending upon the potency of the collagenase) with collagen and collagenase (buffered with Tris®--CaCl2; pH 7.4). The collagen is acetyl ^14 C collagen. The samples are centrifuged and an aliquot removed for assay on a scintillation counter. Because native collagen forms insoluble fibrils under the test conditions, the supernatant liquid contains radioactivity as a measure of hydrolysis. The collagenase activity in the presence of 2mM inhibitor is compared to activity in a control devoid of hinibitor and the results reported as percent inhibition of collagenase activity. Each of the compounds of this invention have been established as active collagenase inhibitors by the test procedure.

CC(=O)NCC(=O)N[C@@H](CS)C(=O)NCC(=O)N[C@@H](CCC(=O)O)C(=O)N[C@@H](CCC(=O)O)C(N)=O [CH3 CO-Gly-L-Cys-Gly-L-Glu-L-Glu-NH2] (Ac-GCGEE-NH2)
Percent collagenase inhibition: 80%
